In PubChem BioAssay AID1391 (Sanford-Burnham Center for Chemical Genomics, 2008):

Tested on: CSM14.1 cells, thapsigargin-induced p-p38/p38 MSD ELISA
Assay: inhibition of thapsigargin-induced p38 phosphorylation, dose response, mechanism study for ER stress apoptosis inhibitor project, MSD ELISA, CSM14.1 cells (AID 1391)
Settings: at 10 µM (top of the series)

SMILES | p-p38/p38 ratio, lower = inhibition
CC1(C)CC(=O)C2=C(C1)Nc1ccccc1NC2c1ccc(-c2ccccc2)cc1 (configuration not stated) | 1.47
COc1ccc(C2CC(=O)C3=C(C2)Nc2ccccc2NC3c2cccc(Oc3ccccc3)c2)cc1OC (configuration not stated) | 1.86
